Values joined by “and” are separate entries in the source; they are usually repeats but may differ in a detail not shown here. Equal values may be shown once.
Tests used:
PPM1DΔhinge = biological target: T1, PPM1DΔhinge (Homo sapiens, UniProt O15297, DEL155-163/G166S/M164G/T165G); assay: Surface plasmon resonance (SPR); assay type: binding
T1 construct: PPM1D1–154-GGS-167–420 (PPM1D∆hinge); His(6)-SUMO (N, cleaved yes); made in house; host or cells: E. coli BL21 (DE3)
T1 sequence (O15297 with tags, fused parts or gaps DEL155-163/M164G/T165G/G166S): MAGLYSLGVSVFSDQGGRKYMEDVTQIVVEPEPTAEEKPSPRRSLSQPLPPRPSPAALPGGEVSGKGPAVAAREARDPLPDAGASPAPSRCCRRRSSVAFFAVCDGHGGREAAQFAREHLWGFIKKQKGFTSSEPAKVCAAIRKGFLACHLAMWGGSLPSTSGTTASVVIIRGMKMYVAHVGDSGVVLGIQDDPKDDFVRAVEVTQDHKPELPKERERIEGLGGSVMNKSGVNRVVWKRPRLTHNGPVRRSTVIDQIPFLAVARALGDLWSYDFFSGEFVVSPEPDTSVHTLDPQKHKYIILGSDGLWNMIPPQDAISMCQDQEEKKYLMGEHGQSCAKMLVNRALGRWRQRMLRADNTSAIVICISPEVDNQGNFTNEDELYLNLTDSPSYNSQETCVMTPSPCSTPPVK
Description: SPR was carried out on the Biacore S200 (GE Healthcare) using Series S sensor chip NTA (GE BR-1005-32). The preparation of the chip surface was conducted according to the manufacturer’s indications. The running buffer contained 50 mM Tris (pH 7.5), 50 mM NaCl, 1 mM MgCl2, 0.5 mM TCEP, 0.005% (v/v) P20 surfactant, and 2% DMSO. PPM1D1–420 and PPM1D∆Flap were run under single-cycle mode due to the slow-off-rate kinetics. The two proteins were immobilized on the chip surface in flow cells 2 and 3 with a signal of ~1500–2000 RU at a rate of 5 μL/min while flow cell 1 was left blank as a reference. The running buffer was injected three times followed by the GSK2830371 analyte in solution. Injections were carried out at a flow rate of 50 μL/min with the analyte in a concentration series of 5-point, 3-fold ending at 400 nM top dose. The association and dissociation phases were monitored for 90 s and 600 s, respectively. Collected data were evaluated using the Biacore S200 Evaluation Software under 1:1 binding mode. PPM1D∆Hinge was run under multi-cycle mode due to its fast-on/fast-off kinetics. The protein was immobilized to give a signal of ~ 3000 RU. GSK2830371 analyte in solution was injected at a flow rate of 90 μL/min in a 10-pt, 2-fold concentration series ending at 15 μM top dose. The association and dissociation phases were monitored for 45 s and 150 s, respectively. Since GSK2830371 had issues with solubility/aggregation at high concentrations that caused artifacts in sensorgrams, only steady-state analysis was performed to extract Kd.

PPM1D1–420 = biological target: T2, PPM1D1–420 (Homo sapiens, UniProt O15297); assay: FDP (fluorescein diphosphate) enzymatic assay; assay type: biochemical; design: FDP assay rate (Fig 3B): unit not given here; details: for FDP assay rate (Fig 3B): triplicates; for FDP Assay, signal relative to 0 nM GSK (=100): PPM1D1-420, individual runs, listed as GSK
T2 construct: PPM1D1–420 was PCR-amplified from the synthesized gene with BsaI sites; His(6)-SUMO (N, cleaved yes); made in house; host or cells: E. coli BL21 (DE3)
T2 sequence (O15297 1-420): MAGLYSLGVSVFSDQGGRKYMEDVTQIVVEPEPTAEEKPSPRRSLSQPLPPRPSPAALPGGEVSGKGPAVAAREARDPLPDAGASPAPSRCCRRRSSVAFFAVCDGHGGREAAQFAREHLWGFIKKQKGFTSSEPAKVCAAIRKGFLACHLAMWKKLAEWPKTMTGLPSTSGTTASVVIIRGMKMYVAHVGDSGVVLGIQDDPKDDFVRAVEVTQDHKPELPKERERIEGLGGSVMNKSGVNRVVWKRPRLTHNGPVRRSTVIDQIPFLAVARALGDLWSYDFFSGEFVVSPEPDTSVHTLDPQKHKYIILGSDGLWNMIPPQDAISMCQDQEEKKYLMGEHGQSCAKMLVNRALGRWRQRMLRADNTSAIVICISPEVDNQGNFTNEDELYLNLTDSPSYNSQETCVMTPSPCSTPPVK
Description: The FDP assay was adapted from reported protocol with minor modifications. Fluorescein diphosphate tetra-ammonium salt (CAS 217305-49-2) was purchased from AAT Bioquest (Cat No.11600). The assay was carried out on a 384-well plate (Corning Cat No.3575) with assay buffer containing 50 mM Tris (pH 7.5), 50 mM NaCl, 30 mM MgCl2, 0.01% tween 20, and 2% DMSO. Reactions were initiated with the addition of FDP to a solution containing wild-type PPM1D or one of its variants, to a final concentration of 5 nM for PPM1D and 100 μM for FDP (or as indicated in Kcat/KM measurements). A fluorescent signal was detected on a Spectramax microplate reader (485/530 nm) for the next 15 min at room temperature with an interval for data collection of 45 s. For the IC50 measurement, the compound was pre-incubated with PPM1D for 1 h before addition of the substrate.

SMILES: Cc1ncc(Cl)cc1NCc1ccc(C(=O)N[C@@H](CC2CCCC2)C(=O)NC2CC2)s1 [GSK2830371]
- decrease in binding affinity by SPR upon hinge deletion (PPM1DΔhinge; PPM1DΔhinge versus PPM1D1–420): ~ 1000 fold
- Kd (PPM1DΔhinge; PPM1DΔhinge, multi-cycle, steady-state analysis): 1000 nM
- mode of inhibition (PPM1D1–420; Michaelis–Menten kinetics, FDP hydrolysis): noncompetitive inhibitor
- IC50 (PPM1D1–420; PPM1D1–420, compound pre-incubated 1 h): ~6 nM
- FDP assay rate (Fig 3B) (PPM1D1–420; [FDP] 25 uM, inhibitor 0.98 (unit not given)): 0.1081 and 0.1018 and 0.09496
- FDP assay rate (Fig 3B) (PPM1D1–420; [FDP] 25 uM, inhibitor 1.95 (unit not given)): 0.0895 and 0.07795 and 0.08008
- FDP assay rate (Fig 3B) (PPM1D1–420; [FDP] 25 uM, inhibitor 3.9 (unit not given)): 0.06795 and 0.05591 and 0.06219
- FDP assay rate (Fig 3B) (PPM1D1–420; [FDP] 25 uM, inhibitor 7.8 (unit not given)): 0.03815 and 0.02398 and 0.0308
- FDP assay rate (Fig 3B) (PPM1D1–420; [FDP] 25 uM, inhibitor 15.6 (unit not given)): 0.01708 and 0.01354 and 0.01271
- FDP assay rate (Fig 3B) (PPM1D1–420; [FDP] 50 uM, inhibitor 0.98 (unit not given)): 0.154 and 0.1613 and 0.1584
- FDP assay rate (Fig 3B) (PPM1D1–420; [FDP] 50 uM, inhibitor 1.95 (unit not given)): 0.1193 and 0.1343 and 0.126
- FDP assay rate (Fig 3B) (PPM1D1–420; [FDP] 50 uM, inhibitor 3.9 (unit not given)): 0.09839 and 0.1118 and 0.09908
- FDP assay rate (Fig 3B) (PPM1D1–420; [FDP] 50 uM, inhibitor 7.8 (unit not given)): 0.04672 and 0.06633 and 0.05157
- FDP assay rate (Fig 3B) (PPM1D1–420; [FDP] 50 uM, inhibitor 15.6 (unit not given)): 0.02583 and 0.03504 and 0.03088
- FDP assay rate (Fig 3B) (PPM1D1–420; [FDP] 100 uM, inhibitor 0.98 (unit not given)): 0.2227 and 0.2316 and 0.2315
- FDP assay rate (Fig 3B) (PPM1D1–420; [FDP] 100 uM, inhibitor 1.95 (unit not given)): 0.1741 and 0.1931 and 0.1914
- FDP assay rate (Fig 3B) (PPM1D1–420; [FDP] 100 uM, inhibitor 3.9 (unit not given)): 0.1254 and 0.1375 and 0.1433
- FDP assay rate (Fig 3B) (PPM1D1–420; [FDP] 100 uM, inhibitor 7.8 (unit not given)): 0.08834 and 0.102 and 0.1128
- FDP assay rate (Fig 3B) (PPM1D1–420; [FDP] 100 uM, inhibitor 15.6 (unit not given)): 0.04867 and 0.06283 and 0.04506
- FDP assay rate (Fig 3B) (PPM1D1–420; [FDP] 100 uM, inhibitor 31.3 (unit not given)): 0.02471 and 0.03171 and 0.02136
- FDP assay rate (Fig 3B) (PPM1D1–420; [FDP] 200 uM, inhibitor 0.98 (unit not given)): 0.2541 and 0.2837 and 0.2718
- FDP assay rate (Fig 3B) (PPM1D1–420; [FDP] 200 uM, inhibitor 1.95 (unit not given)): 0.1754 and 0.2253 and 0.2249
- FDP assay rate (Fig 3B) (PPM1D1–420; [FDP] 200 uM, inhibitor 3.9 (unit not given)): 0.1214 and 0.1628 and 0.1643
- FDP assay rate (Fig 3B) (PPM1D1–420; [FDP] 200 uM, inhibitor 7.8 (unit not given)): 0.119 and 0.111 and 0.098
- FDP assay rate (Fig 3B) (PPM1D1–420; [FDP] 200 uM, inhibitor 15.6 (unit not given)): 0.06395 and 0.07091 and 0.07759
- FDP assay rate (Fig 3B) (PPM1D1–420; [FDP] 200 uM, inhibitor 31.3 (unit not given)): 0.03445 and 0.04201 and 0.04948
- FDP assay rate (Fig 3B) (PPM1D1–420; [FDP] 200 uM, inhibitor 62.5 (unit not given)): 0.03178 and 0.03296 and 0.03025
- FDP assay rate (Fig 3B) (PPM1D1–420; [FDP] 400 uM, inhibitor 0.98 (unit not given)): 0.3661 and 0.3766 and 0.3211
- FDP assay rate (Fig 3B) (PPM1D1–420; [FDP] 400 uM, inhibitor 1.95 (unit not given)): 0.2969 and 0.3135 and 0.2543
- FDP assay rate (Fig 3B) (PPM1D1–420; [FDP] 400 uM, inhibitor 3.9 (unit not given)): 0.2182 and 0.2333 and 0.1765
- FDP assay rate (Fig 3B) (PPM1D1–420; [FDP] 400 uM, inhibitor 7.8 (unit not given)): 0.2094 and 0.221 and 0.1442
- FDP assay rate (Fig 3B) (PPM1D1–420; [FDP] 400 uM, inhibitor 15.6 (unit not given)): 0.1122 and 0.1116 and 0.1013
- FDP assay rate (Fig 3B) (PPM1D1–420; [FDP] 400 uM, inhibitor 31.3 (unit not given)): 0.06577 and 0.07799 and 0.08598
- FDP assay rate (Fig 3B) (PPM1D1–420; [FDP] 400 uM, inhibitor 62.5 (unit not given)): 0.04782 and 0.06273 and 0.0378
- FDP assay rate (Fig 3B) (PPM1D1–420; [FDP] 400 uM, inhibitor 125 (unit not given)): 0.03598 and 0.04023 and 0.04026
- FDP Assay, signal relative to 0 nM GSK (=100) (PPM1D1–420; [GSK] 0.292969 nM): 86.8743 and 86.4893
- FDP Assay, signal relative to 0 nM GSK (=100) (PPM1D1–420; [GSK] 0.585938 nM): 87.0301 and 86.6545
- FDP Assay, signal relative to 0 nM GSK (=100) (PPM1D1–420; [GSK] 1.17188 nM): 79.2709 and 79.2522
- FDP Assay, signal relative to 0 nM GSK (=100) (PPM1D1–420; [GSK] 2.34375 nM): 68.8335 and 60.4469
- FDP Assay, signal relative to 0 nM GSK (=100) (PPM1D1–420; [GSK] 4.6875 nM): 48.948 and 39.1972
- FDP Assay, signal relative to 0 nM GSK (=100) (PPM1D1–420; [GSK] 9.375 nM): 35.4075 and 36.7435
- FDP Assay, signal relative to 0 nM GSK (=100) (PPM1D1–420; [GSK] 18.75 nM): 24.9745 and 29.6638
- FDP Assay, signal relative to 0 nM GSK (=100) (PPM1D1–420; [GSK] 37.5 nM): 10.1395 and 7.848
- FDP Assay, signal relative to 0 nM GSK (=100) (PPM1D1–420; [GSK] 75 nM): 7.727 and 7.844
- FDP Assay, signal relative to 0 nM GSK (=100) (PPM1D1–420; [GSK] 150 nM): 2.646 and -0.6809
- FDP Assay, signal relative to 0 nM GSK (=100) (PPM1D1–420; [GSK] 300 nM): 0.03588 and 0.07574
